From patent US20060084704A1, “Methods and compositions for enhancing degradation of nuclear receptor transcription factors and uses thereof” (priority 2004, published 2006)
Entries after “also recorded” stand apart in the source; their conditions may differ.

Key:
glucocorticoid receptor = biological target: T1, glucocorticoid receptor (Homo sapiens, UniProt P04150); assay: Western blot of LNCaP cell lysates, GR; assay type: cell-based; conditions: 1 or 2 micromolar, 24 hours, presence or absence of DHT
T1 construct: endogenous in cells; host or cells: LNCaP
T1 sequence (P04150 1-777): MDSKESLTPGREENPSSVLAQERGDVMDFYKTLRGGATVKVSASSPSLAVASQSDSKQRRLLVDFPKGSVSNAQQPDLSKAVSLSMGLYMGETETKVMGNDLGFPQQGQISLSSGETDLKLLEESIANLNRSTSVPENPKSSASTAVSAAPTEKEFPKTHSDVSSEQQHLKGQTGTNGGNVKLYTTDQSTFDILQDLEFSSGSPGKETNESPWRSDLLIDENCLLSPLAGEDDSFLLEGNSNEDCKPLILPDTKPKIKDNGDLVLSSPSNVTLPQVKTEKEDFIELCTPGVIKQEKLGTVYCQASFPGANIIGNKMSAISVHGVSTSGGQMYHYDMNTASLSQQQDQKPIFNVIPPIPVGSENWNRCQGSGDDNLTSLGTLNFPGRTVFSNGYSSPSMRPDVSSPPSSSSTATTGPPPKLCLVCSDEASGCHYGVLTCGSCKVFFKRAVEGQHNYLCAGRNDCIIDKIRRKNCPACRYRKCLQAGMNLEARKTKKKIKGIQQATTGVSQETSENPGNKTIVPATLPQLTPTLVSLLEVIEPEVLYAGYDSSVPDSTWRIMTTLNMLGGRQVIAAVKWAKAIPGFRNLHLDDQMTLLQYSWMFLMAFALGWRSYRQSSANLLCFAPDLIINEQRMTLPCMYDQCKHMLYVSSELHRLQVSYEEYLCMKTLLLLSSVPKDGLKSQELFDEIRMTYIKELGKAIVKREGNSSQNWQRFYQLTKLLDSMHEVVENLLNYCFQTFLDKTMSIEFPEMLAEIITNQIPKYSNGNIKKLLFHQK
Method: (§1) Human prostate cancer LNCaP cells and T47D cells were plated at a density of 7×10^5 cells per 60 millimeter tissue culture dish in […] (RPMI) medium containing 10% FBS. The medium was changed to RPMI or DME medium containing 10% charcoal-stripped serum 24 hours later to deplete cellular androgens or estrogens. After another 24 hours, treatment with the test compounds began. The test dose of JC15 was 1 or 2 micromolar and the test does of JC9 was 1, 5 and 10 micromolar. LNCap cells also received dihydrotestosterone (DHT) (3 nanomolar). Control cells received a corresponding amount of the vehicle, dimethylsulfoxide (DMSO) (<0.04%) for an equivalent exposure time. Cells were incubated with JC15 for 24 or 48 hours, and were lysed in 250 microliters of 1×SDS/PAGE loading buffer. Approximately 40 micrograms of total cellular protein was loaded in each lane of a pre-cast gel (NuPAGE, Invitrogen). Protein separation and transfer were performed following the manufacturer's instructions.
(§2) For the prostate cell lysates, androgen receptor (AR) protein was visualized by incubating the resultant membranes with an anti-AR antibody (BD-PharMingen), followed by chemiluminescence detection (ECL Plus, Amersham). […] The resultant protein signals were quantified using densitometry and NIH ImageJ software.

retinoid X receptor = assay: Western blot of LNCaP cell lysates, RXR; assay type: cell-based, human; conditions: 1 or 2 micromolar, 24 hours, presence or absence of DHT
Method: as §1, §2

[1] = system: testosterone-induced hair growth suppression; assay: Androgen-induced alopecia model, hair re-growth in shaved mice; assay type: in vivo, C57BL/6J mice; conditions: topical testosterone 1% in the morning, JC9 0.02% in the afternoon, 20 days
Method: C57BL/6J mice were used in this animal model for hair loss and regrowth (Uno et al. (1990) J. Cutaneous Aging & Cosm. Derm., 1: 193, which is incorporated by reference in its entirety herein). Six-week-old male mice (6 to 7 animals per group) were shaved with an electric clipper, and then treated with a hair-removal cream for 1 to 2 minutes. […] One day after hair removal, a first group of animals each received 100 microliters of a 1% testosterone solution in ethanol, applied topically to the shaved area, once each morning for twenty consecutive days. A second group of animals each received 100 microliters of vehicle (ethanol) alone, applied topically to the shaved area, once each morning for twenty consecutive days. The first group of mice (testosterone-treated) were divided further into a control group and a treatment group. Also beginning one day after hair removal, each mouse in the control group received 100 microliters of a control solution (60% ethanol, 20% propylene glycol, and 20% water) and each mouse in the treatment group received 100 microliters of the test compound, JC9 (0.02% in the same 60% ethanol, 20% propylene glycol, and 20% water solution), applied topically to the shaved area, once each afternoon for twenty consecutive days. Hair re-growth in the shaved areas was observed and photographed at 12, 15, 18, 21, and 24 days after beginning of the topical treatments.

LNCaP tumor cells = assay: In vivo LNCaP xenograft tumor growth in nude mice; conditions: JC9 100 mg/kg/day ip three times per week, 7 weeks
Method: In related in vivo studies, LNCap human prostate tumor cells are xenografted by subcutaneous injection (2×10^6 per site) into nude mice. Mice are subsequently treated by intraperitoneal injection of either the vehicle solution alone as a control or the test compounds (JC9)) at a dose of 100 milligrams per kilogram body weight, three times a week for 7 weeks. Tumor volume is measured twice a week over the next 7 weeks. […] Such results can be taken as a strong indication that the suppression of AR activity and the resulting reduction of tumor growth induced by AR-degrading compounds such as JC15 or by JC9, may be translated into a practical use for treating or preventing diseases and disorders related to AR activity, such as prostate and other cancers.
Two million LNCaP tumor cells were inoculated, subcutaneously, into the left flank of nude mice. In the experimental animals, the nude mice were give an intraperitoneal (ip) injection of compound JC9 at 100 mg/kg/day three times per week or with vehicle control only. After 7 weeks of treatment the tumors were excised, weighed and compared. The tumor weight in ratio of vehicle control to JC9 was 0.694 g:0.172 g.

cellular concentration of glucocorticoid receptor (glucocorticoid receptor) | Structure (SMILES) | cellular concentration of retinoid X receptor (retinoid X receptor) | hair re-growth in shaved areas [1] | reduction in tumor size compared to vehicle control (LNCaP tumor cells) | tumor weight (LNCaP tumor cells)
did not substantially affect | CCOC(=O)CCC(C(=O)C=Cc1ccc(O)c(OC)c1)C(=O)C=Cc1ccc(O)c(OC)c1 (centres unmarked) [JC15, 7-(4-hydroxy-3-methoxyphenyl)-4-[3-(4-hydroxy-3-methoxyphenyl)acryloyl]-5-oxo-hept-6-enoic acid ethyl ester] | did not substantially affect |  |  | 
 | COc1ccc(C=CC(=O)C=C(O)C=Cc2ccc(OC)c(OC)c2)cc1OC [JC9, 5-hydroxy-1,7-bis(3,4-dimethoxyphenyl)-1,4,6-heptatrien-3-one] |  | rapid re-growth of hair in the shaved areas from day 10 to day 20; also recorded: hair growth on day 8 and fully re-growth of hair in the shaved areas after 20 days | 75% | 0.172 g
